Assay results taken from patent US4264729A, “Method and reagent for detecting cancerigenic and anticancerous substances” (priority 1978, dated 1981).

Tests used:
[1] = system: DNA T (matricial DNA separated from sound tissues); assay: synthesis in vitro of DNA on a matrix of check DNA (DNA T) with DNA-polymerase, radioactive acidoprecipitable DNA measured; format: biochemical; settings: for replication of DNA-T separated from sound breast tissues: breast tissue DNA, FIG. 6; for replication of DNA taken on check tissues such as lung or liver tissues: lung or liver tissue DNA; for replication of DNA-T (amount of radioactive DNA 3H synthetised): as a function of the amount of substance in the reactional medium (0 to 100 μg in 0.15 ml), 10 minutes at 36° C., FIG. 1, 3, 4
Source text: (§1) According to the invention, there is provided a method in which there is observed, in measuring the radioactive acidoprecipitable DNA, the synthesis of DNA on a matrix of DNA separated from sound tissues on the one hand, and on a matrix of DNA separated from cancerous tissues on the other hand, in a medium comprising four desoxyribonucleoside-5'-triphosphates, one of which is radioactive, and one enzyme DNA-polymerase, with the substance to be tested and without it.
(§2) For carrying into effect the test, which in itself is very short, it is necessary to hold several preparations, previously and carefully proven, of matricial DNA separated from sound tissues (check tissue, hereinafter referenced to as DNA T) and of matricial DNA separated from cancerous tissues (hereinafter referenced to as DNA C).
The preparations of DNA T are obtained in the same manner by using as raw material sound tissues separated from various human or animal organs, or from sound cells cultivated "in vitro" in a suitable medium.
(§3) For each test, it is necessary to hold at least four couples of matricial DNA of different origins, each couple being formed by an DNA T preparation and an DNA C preparation originating from the same organ, of the same animal kind. For example, there is used at least four couples selected among the following: DNA T and DNA C separated from lung tissue; DNA T and DNA C separated from breast tissue; DNA T and DNA C separated from ovary tissue; DNA T of primary cells of monkey kidney (RS), or of "Vero" cells, or of "SIRC" cells in culture and DNA C of KB cells or Hela cells, or L cells in culture.
(§4) For separating DNA, either from sound tissues or from cancerous tissues, there is used a modified conventional method of separation and purification (J. Narmur, J. Mol. Biol. 3 208, 1961). When a cancerous tissue or a tumour is used, the neighbouring sound or questionable tissues must first be discarded, and reciprocally, the sound tissues must be free from any questionable tissues.
(§5) Immediately after exeresis, the tissue is either frozen at -20° C., or finely crushed in a kneading machine, in the presence of a buffer 2 SSC (containing 17.4 g of NaCl and 10.7 g of trisodic citrate for 1 liter of sterile distilled water) in a sterile aqueous solution (1 to 3 ml of buffer according to the volume of tissue) and of a final concentration of 0.2% in laurylsulphate (by adding an aqueous mother solution of laurylsulphate at 20%).
(§6) In order to get rid of the proteins and to keep the DNA, several extractions are made in the presence of buffer 2 SSC and phenol (solution containing 10% of water), followed by extractions with chloroform and by centrifugations according to the conventional technique of separation and purification of DNA. The DNA present in the aqueous phases is precipitated in 96° alcohol, picked up with a glass rod, solved in a little volume of 1 SSC, then treated by the pancreatic ribonucleases and T1, what requires a whole supplementary cycle of repurification with phenol, then with chloroform. The DNA is dialysed against a solution of 2 SSC (24 hours at 4° C.), dosed by absorption in ultraviolet and stored frozen at -20° C., several months if necessary. Before use, the DNA is once more dialysed during several hours against sterile distilled water.
(§7) The DNA is characterized by its absorbance in ultraviolet at 260 nm and 280 nm. The typical ratio 260/280 varies from 2.0 to 2.1 according to the preparation. The content of the ARN in proteins varies from 0.3 to 0.6% and the content in polyribonucleotids having resisted the action of nucleases and contaminating the DNA is between 1 and 3%. The RNA (ribonucleic acid) can be eliminated by degradation by KOH 0.3 M (final concentration) during 16 hours at 36° C., and the DNA is then dialysed and stored as hereinabove mentioned. […]

[2] = system: DNA C (matricial DNA separated from cancerous tissues); assay: synthesis in vitro of DNA on a matrix of cancerous DNA (DNA C) with DNA-polymerase, radioactive acidoprecipitable DNA measured; format: biochemical; settings: for replication of DNA-C separated from cancerous breast tissues: breast tissue DNA, FIG. 6; for replication of DNA taken on cancerous tissues such as lung or liver tissues: lung or liver tissue DNA; for replication of DNA-C (amount of radioactive DNA 3H synthetised): as a function of the amount of substance in the reactional medium (0 to 100 μg in 0.15 ml), 10 minutes at 36° C., FIG. 1, 3, 4
Source text: as §1, §2
The DNA C preparations are obtained by using as raw material various cancerous tissues or tumours taken on a human or animal organ, such as breast, lung, ovary, neuro-carcinome, ascites, etc. It is also possible to use cultures of cancerous cells such as KB or Hela cells, etc.
as §3, §4, §5, §6, §7

[3] = between 0,005 and 0,01 ml of acridine orange (0.1 mg/ml) in the medium, FIG. 2

Row | replication of DNA-T separated from sound breast tissues [1] | replication of DNA taken on check tissues such as lung or liver tissues [1] | replication of DNA-C separated from cancerous breast tissues [2] | replication of DNA taken on cancerous tissues such as lung or liver tissues [2] | SMILES | replication of DNA-T (amount of radioactive DNA 3H synthetised) [1] | replication of DNA-C (amount of radioactive DNA 3H synthetised) [2] | other results
1 | stimulate weakly | no effect | very strongly | no effect | C[C@]12CC[C@@H]3c4ccc(O)cc4CC[C@H]3[C@@H]1CC[C@@H]2O [estradiol] | – | – | –
2 | – | – | – | – | CN(C)c1ccc2cc3ccc(N(C)C)cc3nc2c1 [acridine orange] | – | – | synthesis of DNA-T [1, 3]: slows down the synthesis; replication of check DNA ([1]; high concentrations): toxic and inhibit; replication of DNA-C ([2]; 0.005 ml acridine orange (0.1 mg/ml) in the medium, compared with DNA-T, FIG. 2): stimulation of DNA-C replication is clearly stronger than that of DNA-T; synthesis of DNA-C [2, 3]: slows down the synthesis; replication of cancerous DNA ([2]; high concentrations): toxic and inhibit
3 | stimulate weakly | no effect | very strongly | no effect | C[C@]12CC[C@@H]3c4ccc(O)cc4CC[C@H]3[C@@H]1CCC2=O [estrone] | – | – | –
4 | – | – | – | – | C1CNCCN1 [piperazine] | neutral | neutral | –
5 | – | – | – | – | O=C(O)c1cccnc1 [Nicotinic acid] | neutral | neutral | –
6 | – | – | – | – | c1cc[n+]2c(c1)-c1cccc[n+]1CC2 [Diquat, ethylene-1,1-bipyridilium-2,2-dibromid] | inhibition non selective | inhibition non selective | –
